Source: US20210238169A1, “PROCESS FOR PREPARING A COMPOUND OF FORMULA (XIII)” (PULMOCIDE LIMITED, priority 2014, published 2021)
Values after ≈ are worked out from the molar mass of the structure shown.

Key:
Type in all cases: cell-based
Cryptococcus neoformans = assay: Fungus panel screening, CLSI broth microdilution; conditions: strain ATCC24067, visual inspection (CLSI); for MIC: read-out: MIC100
Method: (§1) Fungus panel screening was conducted by Eurofins Panlabs Inc. The MIC and MIC50 values of the test articles were determined following the guidelines of the Clinical and Laboratory Standards Institute, broth microdilution methods for yeast (CLSI M27-A2), (CLSI, 2002) and for filamentous fungi (CLSI M38-A), (CLSI, 2008).

Aspergillus flavus = assay: Fungus panel screening, CLSI broth microdilution; conditions: strain ATCC204304, visual inspection (CLSI); for MIC: read-out: MIC100
Method: as §1

[1] = tested on: Aspergillus fumigatus (NCPF2010); assay: Aspergillus fumigatus invasion in human alveoli bilayers (transwells), GM in lower chamber; conditions: for DFB50 (days taken to reach a fungal burden of 50% of control) / GM Levels in the Lower Chamber, OD value / GM Levels in the Lower Chamber, % inhibition vs. control: Compound (I) 0.1 μg/mL upper chamber, Posaconazole 0.01 μg/mL lower chamber
Method: In vitro models of human alveoli, consisting of a bilayer of human alveolar epithelial cells and endothelial cells, were prepared as previously described (Hope et al., 2007). […] Primary human pulmonary artery endothelial cells (HPAEC) were harvested and diluted to 10^6 cells/mL in EGM-2 media (Lonza, Basel, Switzerland). Transwells were inverted and the cell suspension (100 μL/well) was applied to the base of each transwell. The inverted transwells were incubated at RT within a flow hood for 2 hr after which they were turned upright. EGM-2 media was added to the lower (700 μL/well) and upper (100 μL/well) compartments and the transwells were incubated for 48 hr (37° C., 5% CO2). The EGM-2 media in the lower compartment was then replaced with fresh EGM-2 media. A549 cells were harvested and diluted to 5×10^5 cells/mL in 10% EBM, then added to the upper compartment (100 μL/well) of all transwells and the plates incubated for 72 hr (37° C., 5% CO2). Conidia of Aspergillus fumigatus (the itraconazole sensitive strain NCPF2010 and the itraconazole resistant strain TR34-L98H) were cultured separately in Sabouraud dextrose agar for 3 days. A stock conidia suspension of either strain was prepared from a Sabouraud dextrose agar culture by washing with PBS-tween (10 mL; PBS containing 0.05% Tween-20, 100 U/mL Penicillin and 100 U/mL Streptomycin). The conidia count was assessed using a Neubauer haemocytometer and adjusted to 10^6 conidia/mL with PBS. A working stock of conidia was prepared in EBM (conc of 10^5 conidia/mL) immediately prior to use.
The media in the upper compartment was aspirated and that containing the appropriate test and reference compounds, or vehicle, were added (100 μL/well). Transwells were then transferred into the 24-well plate containing the test and reference compounds or DMSO vehicle. After incubation for 1 hr (35° C., 5% CO2) the conidia suspension (10 μL/well) was added to the upper compartment of each transwell. Plates were then incubated for 24 hr (35° C., 5% CO2). Supernatants from each compartment (5 μL/compartment) were collected and stored (−20° C.). Media was replaced daily after collection of the supernatants and all wells were treated with test and reference compounds or with DMSO, as described above, for 3 days. Samples continued to be collected until fungal growth was visible by eye in all transwells. The levels of GM in the supernatant in lower compartment were then measured by ELISA (BioRad, CA, USA) as an index of Aspergillus fumigatus invasion.

SMILES	MIC50 (Cryptococcus neoformans) [µg/mL]	MIC (Cryptococcus neoformans) [µg/mL]	MIC50 (Aspergillus flavus) [µg/mL]	MIC (Aspergillus flavus) [µg/mL]	DFB50 (days taken to reach a fungal burden of 50% of control) [1] [days]	GM Levels in the Lower Chamber, % inhibition vs. control ([1]; Treatment Day 1) [%]	GM Levels in the Lower Chamber, OD value ([1]; Treatment Day 1) [OD]	GM Levels in the Lower Chamber, % inhibition vs. control ([1]; Treatment Day 2) [%]	GM Levels in the Lower Chamber, OD value ([1]; Treatment Day 2) [OD]	GM Levels in the Lower Chamber, % inhibition vs. control ([1]; Treatment Day 3) [%]	GM Levels in the Lower Chamber, OD value ([1]; Treatment Day 3) [OD]	GM Levels in the Lower Chamber, % inhibition vs. control ([1]; Treatment Day 4) [%]	GM Levels in the Lower Chamber, OD value ([1]; Treatment Day 4) [OD]	GM Levels in the Lower Chamber, % inhibition vs. control ([1]; Treatment Day 5) [%]	GM Levels in the Lower Chamber, % inhibition vs. control ([1]; Treatment Day 7) [%]	GM Levels in the Lower Chamber, OD value ([1]; Treatment Day 7) [OD]	GM Levels in the Lower Chamber, % inhibition vs. control ([1]; Treatment Day 8) [%]	GM Levels in the Lower Chamber, OD value ([1]; Treatment Day 8) [OD]	also measured
CC[C@@H]([C@H](C)O)n1ncn(-c2ccc(N3CCN(c4ccc(OC[C@@H]5CO[C@@](Cn6cncn6)(c6ccc(F)cc6F)C5)cc4)CC3)cc2)c1=O [Posaconazole]	0.016 (≈ 0.0228 µM)	0.25 (≈ 0.357 µM)	0.063 (≈ 0.0899 µM)	0.13 (≈ 0.186 µM)	1.45	91	0.064	15	1.01	4.1	1.14	1.1	1.17	−0.6	0.3	1.17	0.8	1.15	GM Levels in the Lower Chamber, OD value ([1]; Treatment Day 0): 0 OD; GM Levels in the Lower Chamber, OD value ([1]; Treatment Day 5): 1.18 OD; GM Levels in the Lower Chamber, % inhibition vs. control ([1]; Treatment Day 6): −1.1%; GM Levels in the Lower Chamber, OD value ([1]; Treatment Day 6): 1.19 OD
Cc1cc(N2CCN(c3ccc(C(=O)Nc4ccc(F)cc4)cc3)CC2)ccc1OC[C@@H]1CO[C@@](Cn2cncn2)(c2ccc(F)cc2F)C1 [Compound (I), 4-(4-(4-(((3R,5R)-5-((1H-1,2,4-triazol-1-yl)methyl)-5-(2,4-difluorophenyl)tetrahydrofuran-3-yl)methoxy)-3-methylphenyl)piperazin-1-yl)-N-(4-fluorophenyl)benzamide]	0.008 (≈ 0.0117 µM)	1 (≈ 1.46 µM)	1 (≈ 1.46 µM)	> 8	1.13	86	0.091	3.4	1.15	3.7	1.14	4.5	1.13	0.3	0.9	1.16	2.8	1.13	effect of combination therapy on invasion in alveoli bilayers ([1]; Compound (I) combined with intraconazole, voriconazole or caspofungin (results not shown)): synergistic or additive effect
